Laboratory results: ChEMBL document CHEMBL1201862, “PubChem BioAssay data set” (2004)
The source made the active and inactive calls.

Experiments:
[1] = target: T1, Sentrin-specific protease 8 (Homo sapiens, UniProt Q96LD8); type: functional;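 also: luminescence read-out of SENP8 inhibition, dose-response confirmation following an ultra-high-throughput screen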
T1 sequence (Q96LD8 whole entry): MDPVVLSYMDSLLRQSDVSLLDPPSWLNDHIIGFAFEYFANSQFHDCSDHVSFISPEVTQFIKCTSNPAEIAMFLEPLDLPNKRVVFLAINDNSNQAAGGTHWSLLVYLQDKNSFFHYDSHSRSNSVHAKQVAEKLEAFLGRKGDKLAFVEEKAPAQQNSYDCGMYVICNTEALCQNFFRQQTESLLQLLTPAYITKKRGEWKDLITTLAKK

[2] = target: T2, Sentrin-specific protease 7 (Homo sapiens, UniProt Q9BQF6); type: functional;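 also: Luminescence-based dose-response confirmation of ultra-high-throughput screening hits, measuring inhibition of SENP7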
T2 sequence (Q9BQF6 whole entry): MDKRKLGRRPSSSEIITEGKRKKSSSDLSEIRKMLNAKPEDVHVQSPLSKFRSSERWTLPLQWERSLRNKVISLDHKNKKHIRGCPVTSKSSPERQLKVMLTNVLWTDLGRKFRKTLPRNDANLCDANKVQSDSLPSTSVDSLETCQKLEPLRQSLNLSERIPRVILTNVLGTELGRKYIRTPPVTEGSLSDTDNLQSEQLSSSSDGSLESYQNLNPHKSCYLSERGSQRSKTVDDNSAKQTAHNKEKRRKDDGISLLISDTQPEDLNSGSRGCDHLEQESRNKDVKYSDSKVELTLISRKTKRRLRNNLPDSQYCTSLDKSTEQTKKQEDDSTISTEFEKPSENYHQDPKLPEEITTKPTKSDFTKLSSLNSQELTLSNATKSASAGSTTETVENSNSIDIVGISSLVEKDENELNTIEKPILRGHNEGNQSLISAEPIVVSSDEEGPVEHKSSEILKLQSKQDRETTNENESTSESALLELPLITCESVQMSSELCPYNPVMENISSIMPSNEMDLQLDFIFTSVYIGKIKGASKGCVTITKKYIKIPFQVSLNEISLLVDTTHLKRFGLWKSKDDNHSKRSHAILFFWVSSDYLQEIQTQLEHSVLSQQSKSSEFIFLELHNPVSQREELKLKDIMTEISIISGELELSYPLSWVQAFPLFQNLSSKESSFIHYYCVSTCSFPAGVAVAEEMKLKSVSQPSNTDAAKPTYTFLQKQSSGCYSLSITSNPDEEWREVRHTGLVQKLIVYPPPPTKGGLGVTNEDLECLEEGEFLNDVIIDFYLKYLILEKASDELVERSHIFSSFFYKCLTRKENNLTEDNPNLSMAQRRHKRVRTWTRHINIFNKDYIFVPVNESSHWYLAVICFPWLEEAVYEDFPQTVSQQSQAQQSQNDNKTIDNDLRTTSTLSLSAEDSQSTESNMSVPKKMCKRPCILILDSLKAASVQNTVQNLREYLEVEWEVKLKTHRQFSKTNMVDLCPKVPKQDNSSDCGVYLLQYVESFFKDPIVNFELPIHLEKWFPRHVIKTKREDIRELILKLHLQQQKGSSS

[3] = target: T3, Sentrin-specific protease 6 (Homo sapiens, UniProt Q9GZR1); type: functional;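 also: Luminescence-based dose-response confirmatory assay of SENP6 inhibition, following up an ultra-high-throughput screen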
T3 sequence (Q9GZR1 whole entry): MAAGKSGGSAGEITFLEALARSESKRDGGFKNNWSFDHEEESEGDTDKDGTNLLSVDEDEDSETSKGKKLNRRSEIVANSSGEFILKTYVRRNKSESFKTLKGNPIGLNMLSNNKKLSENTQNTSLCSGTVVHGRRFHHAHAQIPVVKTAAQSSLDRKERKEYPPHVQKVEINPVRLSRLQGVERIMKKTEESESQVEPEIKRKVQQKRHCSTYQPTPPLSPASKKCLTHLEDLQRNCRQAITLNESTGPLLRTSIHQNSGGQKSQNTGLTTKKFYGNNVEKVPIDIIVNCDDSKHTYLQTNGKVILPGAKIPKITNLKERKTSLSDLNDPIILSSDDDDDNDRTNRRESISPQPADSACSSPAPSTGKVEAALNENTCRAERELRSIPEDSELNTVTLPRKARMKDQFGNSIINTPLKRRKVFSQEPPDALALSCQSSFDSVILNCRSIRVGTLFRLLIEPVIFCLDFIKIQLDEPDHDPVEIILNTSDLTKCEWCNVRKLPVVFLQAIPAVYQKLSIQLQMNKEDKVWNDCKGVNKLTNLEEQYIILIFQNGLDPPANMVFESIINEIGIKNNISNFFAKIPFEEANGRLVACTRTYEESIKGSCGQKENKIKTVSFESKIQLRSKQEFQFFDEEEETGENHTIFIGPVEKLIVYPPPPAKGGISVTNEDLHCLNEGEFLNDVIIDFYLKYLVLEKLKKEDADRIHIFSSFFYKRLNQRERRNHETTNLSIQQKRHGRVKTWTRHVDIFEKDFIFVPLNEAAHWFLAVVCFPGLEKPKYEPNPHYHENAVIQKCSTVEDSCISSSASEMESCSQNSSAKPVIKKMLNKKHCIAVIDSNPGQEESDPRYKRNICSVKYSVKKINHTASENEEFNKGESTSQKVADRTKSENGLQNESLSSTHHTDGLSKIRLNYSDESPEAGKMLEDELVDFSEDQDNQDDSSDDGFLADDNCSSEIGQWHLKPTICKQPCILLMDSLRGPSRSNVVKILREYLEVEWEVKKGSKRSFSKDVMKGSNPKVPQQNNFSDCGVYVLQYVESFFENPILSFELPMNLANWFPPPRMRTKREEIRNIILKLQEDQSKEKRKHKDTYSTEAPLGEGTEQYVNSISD

Caspase-3 = target: T4, Caspase-3 (Homo sapiens, UniProt P42574); type: functional;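 also: Dose-response selectivity test against caspase-3 for candidate inhibitors of sentrin-specific proteases (SENPs)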
T4 sequence (P42574 whole entry): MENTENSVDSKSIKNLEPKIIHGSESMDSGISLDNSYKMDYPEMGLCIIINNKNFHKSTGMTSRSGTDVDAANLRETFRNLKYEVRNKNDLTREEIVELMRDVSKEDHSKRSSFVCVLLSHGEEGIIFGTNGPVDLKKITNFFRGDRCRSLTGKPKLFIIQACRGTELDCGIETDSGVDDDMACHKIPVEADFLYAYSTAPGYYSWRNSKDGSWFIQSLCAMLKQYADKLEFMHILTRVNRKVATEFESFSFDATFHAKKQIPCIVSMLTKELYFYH

Cytochrome P450 2D6 = Cytochrome P450 2D6 (Homo sapiens, UniProt P10635);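 also: CYP2D6 member of a cytochrome P450 panel assay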
[4] = target: T5, Polyadenylate-binding protein 1 (Homo sapiens, UniProt P11940); test: PABP1 MLLE–PAM2 binding inhibitor potency, dose response, biochemical, fluorescence polarization, FITC-PAM2 peptide (AID 602259); type: functional; details: read-out: IC50_Mean
[5] = target: T5, Polyadenylate-binding protein 1; test: PABP1 MLLE–PAM2 interaction inhibitors, dose response, miRNA deadenylation inhibitor project, biochemical, fluorescence polarization, Cy5-PAM2 peptide, secondary (AID 602260); type: functional; details: read-out: IC50_Mean
Protein skinhead-1 = target: T6, Protein skinhead-1 (Caenorhabditis elegans, UniProt P34707); type: functional
T6 sequence (P34707 whole entry): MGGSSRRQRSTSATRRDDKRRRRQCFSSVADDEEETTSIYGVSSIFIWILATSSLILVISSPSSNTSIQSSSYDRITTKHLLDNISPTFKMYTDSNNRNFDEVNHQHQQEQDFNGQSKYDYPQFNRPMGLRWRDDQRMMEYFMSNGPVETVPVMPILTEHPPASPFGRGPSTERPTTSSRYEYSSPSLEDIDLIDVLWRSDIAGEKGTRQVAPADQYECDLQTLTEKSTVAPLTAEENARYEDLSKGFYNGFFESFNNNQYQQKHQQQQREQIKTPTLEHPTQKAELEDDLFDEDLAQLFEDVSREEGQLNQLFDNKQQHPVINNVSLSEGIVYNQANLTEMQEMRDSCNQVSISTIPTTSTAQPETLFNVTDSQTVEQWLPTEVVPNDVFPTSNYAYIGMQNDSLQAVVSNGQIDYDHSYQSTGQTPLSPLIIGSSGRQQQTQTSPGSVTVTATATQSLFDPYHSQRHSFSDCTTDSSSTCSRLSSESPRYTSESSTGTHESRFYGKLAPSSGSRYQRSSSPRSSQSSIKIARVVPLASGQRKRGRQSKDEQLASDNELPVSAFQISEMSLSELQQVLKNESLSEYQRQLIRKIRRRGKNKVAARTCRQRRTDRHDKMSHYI

[6] = Luminescence Cell-Based Dose Confirmation HTS to Identify Activators of 5'UTR Stem-Loop Driven Alpha-Synuclein mRNA Translation in H4 Neuroglioblastoma Cells. [Related pubchem assays: 1829 (Project Summary), 1814 (Primary HTS)]; type: functional
[7] = Luminescence Cell-Based Dose Response HTS to Identify Activators of Luciferase Translation or Activity in H4 […] Cells. [Related pubchem assays: 1829 (Project Summary), 1814 (Primary HTS)]; type: functional
H4 = test: Luminescence Cell-Based Dose Response HTS to Identify Activators of 5'UTR Stem-Loop Driven Prion Protein mRNA Translation in H4 Neuroglioblastoma Cells. [Related pubchem assays: 1829 (Project Summary), 1814 (Primary HTS)]; type: functional; details: Homo sapiens
Streptokinase A = target: T7, Streptokinase A (Streptococcus pyogenes serotype M1, UniProt P10520); test: S. pyogenes streptokinase expression inhibitors, potency, dose response, plasminogen activation absorbance, OD405 (AID 1914); type: functional, Streptococcus pyogenes M1 GAS;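 also: secreted streptokinase activity via plasminogen activation per viability signal from cell pellet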
T7 sequence (P10520 whole entry): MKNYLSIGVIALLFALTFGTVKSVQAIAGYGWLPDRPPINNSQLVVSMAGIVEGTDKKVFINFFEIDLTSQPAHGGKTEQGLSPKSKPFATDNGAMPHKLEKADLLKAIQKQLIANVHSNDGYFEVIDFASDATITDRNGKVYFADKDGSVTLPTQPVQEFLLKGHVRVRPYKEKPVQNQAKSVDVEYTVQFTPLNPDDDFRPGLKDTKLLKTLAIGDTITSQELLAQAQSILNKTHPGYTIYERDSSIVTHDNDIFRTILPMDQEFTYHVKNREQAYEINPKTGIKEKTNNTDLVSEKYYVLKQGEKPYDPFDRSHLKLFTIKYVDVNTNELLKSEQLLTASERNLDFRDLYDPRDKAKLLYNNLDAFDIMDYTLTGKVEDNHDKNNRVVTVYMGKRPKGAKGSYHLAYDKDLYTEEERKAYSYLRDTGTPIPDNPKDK

Cytochrome P450 3A4 = Cytochrome P450 3A4 (Homo sapiens, UniProt P08684);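 also: CYP3A4 tested as one member of a cytochrome P450 panel screen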
Streptococcus = test: Group A Streptococcus viability loss, dose response, counter-screen for streptokinase expression inhibitor project, luminescence, BacTiterGlo (AID 1915); type: functional, organism-based;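 also: potency for reduction of bacterial viability or growth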
[8] = test system: Streptococcus sp. 'group A'; test: growth inhibition of control SK(-) GAS strain, dose response, counter-screen for streptokinase expression inhibitor project, luminescence, kanamycin, BacTiterGlo, confirmation (AID 1900); type: functional, organism-based
[9] = NIH-3T3 fibroblast cytotoxicity, dose response, cytotoxicity control, cell-based, fluorescence, Alamar Blue, secondary assay (AID 2327); type: functional;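 also: NIH-3T3 mouse fibroblasts cultured with fluconazole at 8 µg/mL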
BJ [10] = test: cells; type: functional, cell-based, Homo sapiens; details: Homo sapiens, BJ
[11] = cytotoxicity toward DRD oncogenic fibroblasts, dose response, cell-based, non-viral oncogenic, luminescence (AID 1934); type: functional; details: Homo sapiens
BJ [12] = test: cytotoxicity toward BJ-TERT fibroblasts, dose response, cell-based, RAS-independent, luminescence (AID 1933); type: functional; details: Homo sapiens
BJ [13] = test: cytotoxicity toward BJ-TERT-LT-ST fibroblasts, dose response, cell-based, RAS-independent, luminescence (AID 1935); type: functional; details: Homo sapiens;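 also: BJ fibroblasts immortalized with TERT plus LT and ST oncogenes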

T5 sequence (P11940 whole entry): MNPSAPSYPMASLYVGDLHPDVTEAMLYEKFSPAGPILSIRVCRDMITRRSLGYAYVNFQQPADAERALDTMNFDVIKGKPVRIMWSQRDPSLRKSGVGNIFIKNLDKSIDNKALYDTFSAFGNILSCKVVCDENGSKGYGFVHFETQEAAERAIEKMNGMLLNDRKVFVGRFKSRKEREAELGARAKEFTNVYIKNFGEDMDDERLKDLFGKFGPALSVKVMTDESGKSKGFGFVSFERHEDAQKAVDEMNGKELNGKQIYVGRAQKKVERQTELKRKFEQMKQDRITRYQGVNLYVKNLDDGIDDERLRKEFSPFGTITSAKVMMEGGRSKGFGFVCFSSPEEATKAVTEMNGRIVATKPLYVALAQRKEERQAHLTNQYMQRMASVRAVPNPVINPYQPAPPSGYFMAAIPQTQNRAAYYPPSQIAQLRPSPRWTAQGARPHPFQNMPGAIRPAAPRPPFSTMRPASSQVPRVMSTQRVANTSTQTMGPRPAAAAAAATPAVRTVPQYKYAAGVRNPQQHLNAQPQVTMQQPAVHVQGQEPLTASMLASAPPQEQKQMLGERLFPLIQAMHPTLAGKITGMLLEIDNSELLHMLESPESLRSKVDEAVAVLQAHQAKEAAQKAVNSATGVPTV
Sequence of Cytochrome P450 2D6 (P10635 whole entry): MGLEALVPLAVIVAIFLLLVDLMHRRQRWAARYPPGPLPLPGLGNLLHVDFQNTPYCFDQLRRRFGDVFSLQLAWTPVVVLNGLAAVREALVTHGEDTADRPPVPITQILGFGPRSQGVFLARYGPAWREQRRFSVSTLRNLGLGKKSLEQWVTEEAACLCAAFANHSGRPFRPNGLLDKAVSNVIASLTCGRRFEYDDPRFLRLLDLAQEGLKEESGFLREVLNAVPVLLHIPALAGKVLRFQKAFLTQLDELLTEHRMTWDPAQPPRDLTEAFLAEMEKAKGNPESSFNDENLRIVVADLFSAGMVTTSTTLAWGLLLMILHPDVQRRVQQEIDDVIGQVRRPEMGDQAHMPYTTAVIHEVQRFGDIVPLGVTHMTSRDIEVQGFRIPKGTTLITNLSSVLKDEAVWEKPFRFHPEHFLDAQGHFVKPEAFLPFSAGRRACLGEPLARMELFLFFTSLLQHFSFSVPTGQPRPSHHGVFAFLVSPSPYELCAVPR
Sequence of Cytochrome P450 3A4 (P08684 whole entry): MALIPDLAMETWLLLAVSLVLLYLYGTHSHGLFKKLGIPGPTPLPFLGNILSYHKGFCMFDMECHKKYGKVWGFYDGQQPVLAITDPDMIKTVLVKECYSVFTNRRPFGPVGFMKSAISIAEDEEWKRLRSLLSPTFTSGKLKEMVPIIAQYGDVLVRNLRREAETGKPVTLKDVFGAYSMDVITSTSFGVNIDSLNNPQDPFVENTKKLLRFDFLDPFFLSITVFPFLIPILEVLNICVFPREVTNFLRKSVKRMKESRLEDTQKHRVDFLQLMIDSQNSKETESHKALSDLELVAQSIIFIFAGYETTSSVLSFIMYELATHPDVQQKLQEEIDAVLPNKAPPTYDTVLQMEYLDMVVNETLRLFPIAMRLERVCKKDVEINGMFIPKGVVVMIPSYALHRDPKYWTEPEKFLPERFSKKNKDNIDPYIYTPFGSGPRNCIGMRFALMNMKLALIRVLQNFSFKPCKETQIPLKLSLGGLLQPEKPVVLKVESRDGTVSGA

| SMILES | IC50 [1] | IC50 [2] | IC50 [3] | IC50 (Caspase-3) | IC50 [4] | IC50 [5] | also measured |
| --- | --- | --- | --- | --- | --- | --- | --- |
| O=C(Nc1ccc(Cl)cc1)Nc1nccs1 | 15.5 µM (active) | 7.33 µM (active) | 14.6 µM (active) | 21.7 µM (active) |  |  | AC50 (Cytochrome P450 2D6): 31.6 µM (inconclusive) |
| Cc1nc(NC(=S)NC(=O)c2ccccc2)sc1C(=O)N(C)C |  |  |  |  | > 66 µM (inactive) | > 66 µM (inactive) |  |
| O=C(NN=Cc1sc(=O)[n-]c1-[n+]1ccccc1)c1ccccc1O |  |  |  |  | 35.2 µM (inactive) | > 66 µM (inactive) |  |
| O=CNc1ccc2c3c(cccc13)-c1ccccc1-2 |  |  |  |  | 37.1 µM (inactive) | 33.1 µM (inactive) |  |
| c1ccc2nc(-c3ccc(-n4ccnc4)cc3)ccc2c1 | 13.1 µM (active) | 5.47 µM (active) | 10.8 µM (active) | 8.83 µM (active) |  |  | IC50 (Protein skinhead-1): 7.87 µM (active) |
| CCSc1nsc(NC(=O)Nc2ccccc2F)n1 | 6.84 µM (active) | 5.95 µM (active) | > 100 µM (inactive) | 29 µM (active) |  |  | EC50 [6]: 0.283 µM (active); EC50 [7]: 20.4 µM (active); EC50 (H4): 16.1 µM (inconclusive) |
| N=C1/C(=C/c2cccs2)C(=O)N=C2SN=C(SCc3ccccc3)N12 | 32.6 µM (active) | 27.7 µM (active) | 11.1 µM (active) | 50.3 µM (active) |  |  | EC50 (Streptokinase A): 5.78 µM (active); AC50 (Cytochrome P450 3A4): 14.1 µM (inconclusive); EC50 (Streptococcus): 30 µM (active); AC50 (Cytochrome P450 2D6): 25.1 µM (inconclusive); EC50 [8]: 3.65 µM (active) |
| CCCc1nc2ccc(Cl)cn2c1Cc1ccsc1 |  |  |  |  | 59.3 µM (inactive) | 51.2 µM (inactive) |  |
| COc1cccc(C(=O)OCC(=O)c2ccc(Br)s2)c1 | 21.6 µM (active) | 10.3 µM (active) | 14.6 µM (active) | 26.8 µM (active) |  |  |  |
| Nc1[nH]n(-c2ccccc2)c(=O)c1N=Nc1ccccc1 | > 100 µM (inactive) | 4.47 µM (active) | > 100 µM (inactive) | 20.2 µM (active) |  |  |  |
| O=C(Nc1nc(=O)c2ccccc2s1)c1ccccc1 | > 100 µM (inactive) | 6.3 µM (active) | 60.6 µM (active) | 4.38 µM (active) |  |  | EC50 [9]: 63.1 µM (active) |
| CCOC(=O)c1ccc(Nc2sc(C(=O)c3cccc([N+](=O)[O-])c3)c(N)c2C#N)cc1 |  |  |  |  |  |  | EC50 (BJ [10]): 92.4 µM (inconclusive); EC50 [11]: 136 µM (inconclusive); EC50 (BJ [12]): > 150 µM (not active); EC50 (BJ [13]): 97.4 µM (active) |
| CCN(CC)S(=O)(=O)c1ccc2c(c1)nc(SCn1nnc3ccccc3c1=O)n2CC |  |  |  |  | > 66 µM (inactive) | > 66 µM (inactive) |  |
